From ChEMBL document CHEMBL3286122, “Structure-assisted discovery of the first non-retinoid ligands for Retinol-Binding Protein 4” (Bioorg Med Chem Lett, 2014)
The source made the active and inactive calls. The rule behind the calls is not given here.

Key:
[1] = biological target: T1, Retinol-binding protein 4 (Homo sapiens, UniProt P02753); assay: Displacement of [3H]-retinol from human recombinant RBP4 by scintillation proximity assay
[2] = biological target: T1, Retinol-binding protein 4; assay: Inhibition of human recombinant RBP4-transthyretin interaction by FRET analysis
[3] = Metabolic stability in rat liver microsomes assessed as compound remaining after 30 mins; assay type: ADME; settings: read-out: Stability
[4] = Clearance in rat at 0.5 mg/kg, iv; assay type: ADME, organism-based; parameters: dose 0.5 mg/kg, route intravenous; settings: in vivo
[5] = AUC in rat at 0.5 mg/kg, iv; assay type: ADME, organism-based; parameters: dose 0.5 mg/kg, route intravenous; settings: plasma
[6] = Mean residence time in rat at 0.5 mg/kg, iv; assay type: ADME, organism-based; parameters: dose 0.5 mg/kg, route intravenous; settings: in vivo
[7] = Volume of distribution at steady state in rat at 0.5 mg/kg, iv; assay type: ADME, organism-based; parameters: dose 0.5 mg/kg, route intravenous; settings: in vivo, read-out: Vdss
[8] = Cmax in mouse at 5 mg/kg, po; assay type: ADME, organism-based; parameters: dose 5 mg/kg, route oral; settings: in vivo
[9] = AUC in mouse at 5 mg/kg, po; assay type: ADME, organism-based; parameters: dose 5 mg/kg, route oral; settings: plasma
[10] = Mean residence time in mouse at 5 mg/kg, po; assay type: ADME, organism-based; parameters: dose 5 mg/kg, route oral; settings: in vivo
[11] = tested on: Liver microsome; assay: Drug metabolism in rat liver microsomes assessed as hydrolysis into primary urea; assay type: ADME
[12] = tested on: Liver microsome; assay: Drug metabolism in human liver microsomes assessed as hydrolysis primary urea; assay type: ADME
[13] = tested on: Liver microsome; assay: Drug metabolism in rat liver microsomes assessed as oxidation in pyridinyl piperazine region; assay type: ADME
[14] = tested on: Liver microsome; assay: Drug metabolism in human liver microsomes assessed as oxidation in pyridinyl piperazine region; assay type: ADME
[15] = species on record: Mus musculus; assay: Reduction in RBP4 level in chow-fed B6D2F1 mouse after 4 hrs; assay type: functional, organism-based
[16] = species on record: Mus musculus; assay: Reduction in retinol level in chow-fed B6D2F1 mouse after 4 hrs; assay type: functional, organism-based
[17] = Cmax in mouse at 30 mg/kg, po; assay type: ADME, organism-based; parameters: dose 30 mg/kg, route oral; settings: in vivo
[18] = AUC in mouse at 30 mg/kg, po; assay type: ADME, organism-based; parameters: dose 30 mg/kg, route oral; settings: plasma
[19] = Mean residence time in mouse at 30 mg/kg, po; assay type: ADME, organism-based; parameters: dose 30 mg/kg, route oral; settings: in vivo
[20] = species on record: Mus musculus; assay: Reduction in RBP4 level in chow-fed B6D2F1 mouse at 5 uM after 4 hrs; assay type: functional, organism-based
[21] = species on record: Mus musculus; assay: Reduction in retinol level in chow-fed B6D2F1 mouse at 5 uM after 4 hrs; assay type: functional, organism-based

SMILES | IC50 [1] [nM] | IC50 [2] [nM] | also measured
O=C(c1cnccc1C(F)(F)F)N1CCC(c2ccccc2C(F)(F)F)CC1 | 130 | 76 | 
COc1ccc(Cl)cc1NC(=O)C1CCN(c2ncccc2C(F)(F)F)CC1 | 1100 |  | 
COc1ccc(Cl)cc1C(=O)N1CCN(c2ncnc3sc4c(c23)CCC4)C(C)C1 (stereo unspecified) | 830 | 1480 | 
COc1ccc(Cl)cc1NC(=O)N1CCN(C)CC1 | > 30000 |  | 
O=C(c1cc(C(F)(F)F)[nH]n1)N1CCC(c2ccccc2C(F)(F)F)CC1 | 240 | 120 | 
COC(=O)c1cccc(C(=O)N2CCC(c3ccccc3C(F)(F)F)CC2)c1 | 830 | 600 | 
O=C(Cc1ccccc1C(F)(F)F)N1CCN(c2ncnc3sc4c(c23)CCC4)CC1 | 280 | 60 | 
O=C(O)c1ccccc1NC(=O)N1CCN(c2ncccc2C(F)(F)F)CC1 |  |  | remaining at 0.5 h [3]: 51%; clearance [4]: 1.67 mL/min/kg; AUC [5]: 5080 ng·h/mL; MRT [6]: 2.6 h; Vd [7]: 0.26 L/kg; Cmax [8]: 1000 ng/mL; AUC [9]: 3650 ng·h/mL; MRT [10]: 3.2 h; Drug metabolism [11]: metabolite_notdetected; Drug metabolism [12]: metabolite_notdetected
COc1ccc(Cl)cc1NC(=O)N1CCN(c2ncc(C(F)(F)F)cc2C(F)(F)F)CC1 | 2200 |  | 
COc1ccc(Cl)cc1NC(=O)N1CCN(c2ccccc2C(F)(F)F)CC1 | 70 | 17 | 
COc1ccc(Cl)cc1NC(=O)N1CCN(c2ncnc3sc4c(c23)CCC4)CC1 | 360 | 600 | 
O=C(c1cccc(C(F)(F)F)c1)N1CCC(c2ccccc2C(F)(F)F)CC1 | 920 | 2700 | 
O=C(c1ccco1)N1CCC(c2ccccc2C(F)(F)F)CC1 | 120 | 52 | 
O=C(c1cn(Cc2ccccc2)cn1)N1CCN(c2ccccc2Cl)CC1 | 440 |  | 
COC(=O)c1ccccc1NC(=O)N1CCC(c2ccccc2C(F)(F)F)CC1 | 91 | 18 | 
O=C(c1nccs1)N1CCC(c2ccccc2C(F)(F)F)CC1 | 51 | 3 | 
COc1ccc(Cl)cc1NC(=O)N1CCN(c2ncccc2C(F)(F)F)CC1 | 230 | 130 | remaining at 0.5 h [3]: 1%; Drug metabolism [13]: metabolite_detected; Drug metabolism [11]: metabolite_detected; Drug metabolism [12]: metabolite_detected; Drug metabolism [14]: metabolite_detected
COc1ccc(Cl)cc1NC(=O)N1CCC(c2ccccc2C(F)(F)F)CC1 | 160 | 23 | 

SMILES | IC50 [1] [nM] | IC50 [2] [nM] | also measured
O=C(O)c1ccccc1NC(=O)N1CCC(c2ccccc2C(F)(F)F)CC1 |  |  | remaining at 0.5 h [3]: > 90%; clearance [4]: 0.0833 mL/min/kg; AUC [5]: 10700 ng·h/mL; MRT [6]: 9.7 h; Vd [7]: 0.045 L/kg; Cmax [8]: 2950 ng/mL; AUC [9]: 17200 ng·h/mL; MRT [10]: 5.4 h; Drug metabolism [13]: metabolite_notdetected; Drug metabolism [14]: metabolite_notdetected; Activity [15]: Dose-dependent effect; EC50 ([15]; B6D2F1, 4 h): 980 nM; Activity [16]: Dose-dependent effect; EC50 ([16]; B6D2F1, 4 h): 1100 nM
CC1=C(/C=C/C(C)=C/C=C/C(C)=C/C(=O)Nc2ccc(O)cc2)C(C)(C)CCC1 [FENRETINIDE] |  |  | remaining at 0.5 h [3]: 67%; clearance [4]: 5 mL/min/kg; AUC [5]: 1660 ng·h/mL; MRT [6]: 10.5 h; Vd [7]: 3.2 L/kg; Cmax [17]: 65 ng/mL; AUC [18]: 1210 ng·h/mL; MRT [19]: 35 h; Activity [20]: Active; Activity [21]: Active
FC(F)(F)c1cccc(CN2CCN(c3ncnc4sc5c(c34)CCC5)CC2)c1 | 600 | 24 | 
O=C(Cc1ccccc1C(F)(F)F)N1CCN(c2ncccc2C(F)(F)F)CC1 | 3610 | > 10000 | 
COc1ccc(Cl)cc1NC(=O)N1CCN(c2ccccn2)CC1 | > 30000 | > 30000 | 
COc1ccc(Cl)cc1NC(=O)N1CCN(c2ncccc2Cl)CC1 | 2500 |  | 
Cn1cnc(C(=O)N2CCC(c3ccccc3C(F)(F)F)CC2)c1 | 110 | 17 | 
Cn1cncc1C(=O)N1CCC(c2ccccc2C(F)(F)F)CC1 | 840 | 550 | 
FC(F)(F)c1ccnc(N2CCC(c3ccccc3C(F)(F)F)CC2)n1 | 270 | 28 | 
COc1ccc(Cl)cc1NC(=O)N1CCN(Cc2c(Cl)cccc2Cl)CC1 | 4500 | 7500 | 
COc1ccc(Cl)cc1NC(=O)N1CCN(c2ccccc2Cl)CC1 | 890 | 1300 | 
FC(F)(F)c1cccc(CN2CCN(c3ncccc3C(F)(F)F)CC2)c1 | > 30000 | > 10000 | 
COc1ccc(Cl)cc1NC(=O)N1CCN(CCc2ccccc2)CC1 | > 30000 | > 30000 | 
COc1ccc(Cl)cc1NC(=O)N1CCN(c2ccccc2)CC1 | 30000 |  | 
COc1ccc(Cl)cc1NC(=O)N1CCN(c2ncccc2C(F)(F)F)CC1C (stereo unspecified) | 450 | 350 | 
COc1ccc(Cl)cc1NC(=O)N1CCN(c2ccccc2Cl)C(=O)C1 | 3600 |  | 
COc1ccc(Cl)cc1NC(=O)N1CCCN(c2ncccc2C(F)(F)F)CC1 | 480 | 670 | 
